In this experiment the target is Glycogen synthase kinase-3 alpha (Homo sapiens) (UniProt P49840). In words: concentration-response blocking of human GSK3A – biochemical, luminescence, cell-free homogeneous, retest, dose response (AID 463203). The conditions noted are these: GSK-3 alpha enzyme, ADP-Glo luminescence, 60 min.

Structures are written as SMILES. Calls of active or inactive are those of the source.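 The calls were made as follows: active = more than half of replicate measurements showing over 20% loss of kinase signal relative to plate controls; inconclusive = some but at most half of replicates over 20% loss; inactive = no replicate over 20% signal loss.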 Bounds are passed on as bounds.

Glycogen synthase kinase-3 alpha (Homo sapiens), sequence (P49840 whole entry, looked up): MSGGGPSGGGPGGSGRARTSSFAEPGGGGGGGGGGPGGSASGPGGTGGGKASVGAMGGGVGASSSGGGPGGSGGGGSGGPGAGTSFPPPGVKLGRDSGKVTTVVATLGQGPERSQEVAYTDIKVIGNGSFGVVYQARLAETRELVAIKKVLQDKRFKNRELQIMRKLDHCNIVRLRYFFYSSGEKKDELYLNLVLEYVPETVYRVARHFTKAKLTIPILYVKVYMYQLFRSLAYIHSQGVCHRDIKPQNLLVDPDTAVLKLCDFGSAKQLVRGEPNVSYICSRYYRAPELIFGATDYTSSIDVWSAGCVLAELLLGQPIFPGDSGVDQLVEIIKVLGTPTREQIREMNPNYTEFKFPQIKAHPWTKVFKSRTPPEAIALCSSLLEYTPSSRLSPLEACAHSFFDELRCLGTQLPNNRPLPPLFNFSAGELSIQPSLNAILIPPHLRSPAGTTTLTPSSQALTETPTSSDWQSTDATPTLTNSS

As usually defined, the AC50 is the concentration giving half of the maximal activity seen. Regarding `CC1CCN(Cc2c(O)ccc3c2O/C(=C\c2ccco2)C3=O)CC1`, the AC50 was 4.41 µM.
The same measure for `O=C(Nc1cccc(Cl)c1N1CCOCC1)c1ccc(Br)o1`: > 30 µM (inactive); for `O=C1CCCC2=C1C(c1ccc(O)cc1)c1c(ccc3ccccc13)N2` (stereo unspecified): > 30 µM (inactive).
For `CC(=O)Oc1cc(O)c2c(=O)c(OC(C)=O)c(-c3ccc(OC(C)=O)c(OC(C)=O)c3)oc2c1`, the AC50 was 15.4 µM.
For `Cc1cccc(C)c1OCC(O)CNC(C)(C)C` (stereo unspecified) the value was > 30 µM (inactive).
For `CSc1ccc(-c2cc(=O)c3ccccc3o2)cc1` the value was > 30 µM (inactive); for `Cc1nc(S/C(=C/c2ccc(-c3ccc(C(=O)O)cc3)o2)C(=O)O)n[nH]1`, 21.4 µM; for `CSc1nnc([C@@H](N)Cc2c[nH]c3ccccc23)o1`, > 30 µM (inactive).
With `Cc1c(C(=O)N2CCN(c3ccccc3)CC2)oc2c(Cl)cccc12`, the AC50 is > 30 µM (inactive).
The same measure for `c1cncc(-c2nc3ccccc3[nH]2)c1`: > 30 µM (inactive); for `CC(C)N1C(=O)/C(=C/C=C/c2ccco2)C(=O)N(Cc2ccco2)C1=O`: > 30 µM (inactive).
For `N#CC1=C2SCN(Cc3ccco3)CN2C(=O)CC1c1c(F)cccc1Cl` (stereo unspecified) the value was > 30 µM (inactive); for `N#CC1=C2SCN(Cc3ccco3)CN2C(=O)CC1c1cccc2ccccc12` (stereo unspecified), > 30 µM (inactive); for `COc1ccc(/C=C/c2nc(N)nc(-c3ccccc3O)n2)cc1`, > 30 µM (inactive).
As for `Cc1ccc(OCC(=O)N2CCN(c3nnc(-c4ccccc4)c4ccccc34)CC2)cc1`, the AC50 was > 30 µM (inactive).
The same measure for `O=c1[nH]c2c(s1)C(c1ccccc1)C1C3CCC(C3)C1S2` (stereo unspecified): 1.98 µM; for `CN(Cc1c(C(=O)N/N=C/c2ccccc2)nnn1-c1nonc1N)C1CCCCC1`: > 30 µM (inactive).
For `Cc1ccc2oc(=O)c3cnn(CC(=O)N4CCN(c5ccccc5)CC4)c3c2c1` the value was > 30 µM (inactive); for `O=C(NCCCN1CCN(Cc2ccccc2Cl)CC1)Nc1ccccc1`, > 30 µM (inactive).
For `c1nc(NC2CCCCCC2)c2[nH]cnc2n1` the value was 29.8 µM; for `Cc1nn(CCOc2ccccc2)c(=O)n1-c1ccccc1F`, > 30 µM (inactive); for `O=C(COc1ccccc1F)NC12CC3CC(CC(C3)C1)C2`, > 30 µM (inactive).
Consider `CCN1CCN(Cc2cc(OC)c(OC)cc2[N+](=O)[O-])CC1`, for which the AC50 was > 30 µM (inactive).
The same measure for `O=C(CSc1nc2nc(-c3cccs3)cc(C(F)(F)F)c2c(=O)[nH]1)Nc1ccc(F)c(F)c1`: > 30 µM (inactive); for `CCN1CCN(c2c(Cl)cccc2NC(=O)c2ccc(Br)o2)CC1`: 2.59 µM.
The same measure for `CCOC(=O)c1[nH]c(C)c(C(=O)OCCOc2cccc(C)c2)c1C`: > 30 µM (inactive); for `CCN1C(=O)/C(=C2\SC(=S)N(c3c(C)n(C)n(-c4ccccc4)c3=O)C2=O)c2ccccc21`: > 30 µM (inactive); for `O=C(CN1CCCCCC1)Nc1ccccc1Oc1ccccc1`: > 30 µM (inactive).
For `COc1ccc(CCNc2nc(C)c(C(C)=O)s2)cc1OC`, the AC50 was > 30 µM (inactive).
For `OCc1cn(-c2ccccc2)nn1` the value was > 30 µM (inactive); for `CC1=C(C(=O)OC(C)C)C(c2cccc(F)c2)n2ncnc2N1` (stereo unspecified), > 30 µM (inactive).
On to `Cc1csc(NC(=O)/C=C/c2ccc3c(c2)OCO3)n1`, for which the AC50 was > 30 µM (inactive).
The same measure for `Nc1nonc1-n1nnc(C(=O)N/N=C/c2ccccc2Cl)c1-c1ccccc1`: > 30 µM (inactive); for `CSCCC1NC(=S)N(Cc2ccccc2)C1=O` (stereo unspecified): > 30 µM (inactive); for `O=C(CSc1ncnc2sc3c(c12)CCC3)NCC1CCCO1` (stereo unspecified): > 30 µM (inactive).
The same measure for `COc1cccc(Nc2nc(N)c([N+](=O)[O-])c(NCc3ccco3)n2)c1`: 5.75 µM; for `COc1ccc(-c2cc(C(F)(F)F)nc(SCC(=O)NCc3cccs3)n2)cc1OC`: > 30 µM (inactive).
For `COc1ccc(CCn2cnc(=O)c(C#N)c2C)cc1OC` the value was > 30 µM (inactive).
On to `COc1cc(/C=N/NC(=O)c2cccs2)ccc1O`, for which the AC50 is > 30 µM (inactive).
On to `Cc1cc(Nc2ccc(C(=O)O)cc2)nc(N)n1`, for which the AC50 is > 30 µM (inactive).
The same measure for `CCCCCCCCCCOC(=O)Cn1c(COc2ccc(OC)cc2)[n+](C)c2ccccc21`: > 30 µM (inactive).
For the molecule `Cc1c(C(=O)OCCOC(C)C)[nH]c2c1C(=O)CC(C)(C)C2`, the AC50 was 25.4 µM.
The same measure for `CC(C)CC(=O)Nc1ccc(-c2cn3cccnc3n2)cc1`: > 30 µM (inactive); for `C/C(=N\NC(=O)c1nnn(-c2nonc2N)c1CN(C)C)c1ccco1`: > 30 µM (inactive); for `Cn1c(=O)c2[nH]cnc2n(-c2ccccc2)c1=O`: > 30 µM (inactive).
The same measure for `Cc1ccc(-c2nnc3n2N=C(c2ccc(Br)cc2)CS3)cc1`: > 30 µM (inactive); for `CC(=O)Nc1cccc(-c2csc(NCc3ccccc3)n2)c1`: > 30 µM (inactive); for `CCCCc1ccc(NC(=O)N[C@H](C(=O)O)C(C)CC)cc1` (stereo partly specified): > 30 µM (inactive).
The same measure for `O=C(NCCCN1CCCC1)c1cc2c(Cl)nc3ccccc3c2s1`: > 30 µM (inactive); for `Cc1cc(N2CCN(c3ccccc3)CC2)n2ncnc2n1`: > 30 µM (inactive); for `N#CC(C#N)=C1CCc2ccccc2N1`: > 30 µM (inactive).
Take `CC1(C)CC(=O)C2=C(C1)Nc1ccccc1[S@]2=O`: the AC50 was > 30 µM (inactive).
For `COc1ccc2cc(C(=O)NCc3ccco3)c(=O)oc2c1` the value was > 30 µM (inactive); for `CCOC(=O)c1ccc(N2CSC3=C(C#N)C(c4ccc(OC)cc4OC)CC(=O)N3C2)cc1` (stereo unspecified), > 30 µM (inactive).
For `C/C(=N\O)C(=O)NCCCn1ccnc1` the value was > 30 µM (inactive).
In the case of `CCOc1cccc(-c2c(C(=O)N/N=C(\C)c3cccnc3)nnn2-c2nonc2N)c1`, the AC50 was 5.21 µM.
Take `C/C(=N\NC(=O)CSc1nc(C)[nH]c1[N+](=O)[O-])c1ccc(F)cc1`: the AC50 is > 30 µM (inactive).
Regarding `COc1ccccc1NC(=O)CCSc1nnc(-c2ccc(O)cc2)o1`, the AC50 is 8.24 µM.
The same measure for `O=C(NCCc1csc(-c2ccccc2)n1)c1ccc(Br)o1`: 17.4 µM.
For `O=C(Nc1ccccc1-c1nnc(SCc2ccc(Cl)cc2Cl)o1)c1ccccc1` the value was > 30 µM (inactive); for `COc1cc(/C=C2/S/C(=N/S(=O)(=O)Cc3ccccc3)NC2=O)c([N+](=O)[O-])cc1OC`, > 30 µM (inactive); for `CN(C)c1nc2sc3c(c2c(=O)n1C)CC(C)(C)OC3`, > 30 µM (inactive).
The same measure for `Cc1cccc(NC(=O)CSc2nc3[nH]ncc3c(=O)n2-c2ccccc2)c1`: > 30 µM (inactive); for `Fc1ccccc1N1CCN(CCCNc2ccc3nncn3n2)CC1`: > 30 µM (inactive).
As for `CCc1cc2c(NCc3ccco3)ncnc2s1`, the AC50 was > 30 µM (inactive).
For `COc1ccc(/C=N/NC(=O)c2nnn(-c3nonc3N)c2-c2cccs2)cc1OC` the value was 1.41 µM.

(Values after PubChem BioAssay AID463203 (Broad Institute, 2010).)
